Measured values reported in patent US9174979B2, “Phenanthroindolizidine compound and NFκB inhibitor containing same as active ingredient” (KABUSHIKI KAISHA YAKULT HONSHA, priority 2008, dated 2015).
Values after ≈ are worked out from the molar mass of the structure shown. Like-named read-outs stand apart in the source and are kept apart here.

Experiments:
[1] = system: human non-small cell lung cancer A549 cells; assay: Inhibitory action on the proliferation of A549 cells; format: cell-based; conditions: 96 hours culture, TetraColor ONE; for IC50: Homo sapiens, A549
Method: (§1) The action of the phenanthroindolizidine alkaloid compound of the present invention on the proliferation of human colon cancer SW480 cells, HT-29 cells, and human non-small cell lung cancer A549 cells was studied. The SW480 cells were suspended in a 10% FBS/RPMI1640 and then seeded in a 96-well microplate, followed by culturing in 5% CO2 at 37° C. (2000 cells/well). The A549 cells and the HT-29 cells were each suspended in a DMEM medium containing 10% FBS, 100 U/mL penicillin, and 100 μg/mL streptomycin (10% FBS/DMEM) and a DMEM F-12 HAM medium containing 10% FBS, 100 U/mL penicillin, and 100 μg/mL streptomycin (10% FBS/DMEM F12 HAM), and then seeded in 96-well microplates, followed by culturing in 5% CO2 at 37° C. (1000 cells/well). After an overnight culture, the compound of the present invention was added, followed by further culturing for 48 hours (SW480 cells) and 96 hours (A549 cells and HT-29 cells). After culturing, the number of viable cells was counted using TetraColor ONE (Seikagaku Corporation) in accordance with the attached operating procedure. The results were expressed as the concentration of a test compound needed for 50% inhibition of the proliferation of the cells (IC50).

[2] = system: human colon cancer HT-29 cells; assay: Inhibitory action on the proliferation of HT-29 cells; format: cell-based; conditions: 96 hours culture, TetraColor ONE; for IC50: Homo sapiens, HT-29
Method: as §1

[3] = system: NFκB; assay: NFκB luciferase reporter assay in SW480/NRE-Luc cells stimulated with TNFα; format: cell-based, human; conditions: for IC50: Homo sapiens
Text: (§2) The action of the phenanthroindolizidine alkaloid compound of the present invention on the NFκB activity was studied in a luciferase assay. Human colon cancer SW480 cells were transfected with pNFκB-Luc Plasmid (Stratagene), which is a reporter vector in which a five-time tandem repeat of the NFκB responsive element (NRE) is integrated into the upstream of the luciferase gene, using Lipofectamine 2000 (Invitrogen Corporation) in accordance with the attached operating procedure. Subsequently, the cells were cultured in an RPMI1640 medium containing 10% FBS, 100 U/mL penicillin, 100 μg/mL streptomycin, and 0.5 mg/mL G418 to produce SW480 cells having the luciferase gene, the expression of which is regulated by NRE, stably introduced therein (SW480/NRE-Luc cells). Likewise, SW480 cells were transfected with pGL3-Control Vector (Promega Corporation), which is a reporter vector in which the SV40 promoter is integrated into the upstream of the luciferase gene, to produce SW480 cells having the luciferase gene, the expression of which is regulated by the SV40 promoter, stably introduced therein (SW480/SV40-Luc cells). The SW480/NRE-Luc cells or the SW480/SV40-Luc cells were suspended in an RPMI1640 medium containing 10% FBS, 100 U/mL penicillin, and 100 μg/mL streptomycin (10% FBS/RPMI1640), and then seeded in a 96-well microplate, followed by culturing under conditions of 5% CO2 and at 37° C. (5000 cells/well). After an overnight culture, the compound of the present invention was added, followed by culturing for one hour. Further, 50 ng/mL TNFα (Sigma-Aldrich Corporation) was added, followed by culturing for four hours. Subsequently, a Steady-Glo Luciferase Assay reagent (Promega Corporation) was added, and the luminescent intensity was detected by SpectraMax M5e (Molecular Devices, Inc.) to measure the intracellular luciferase activity. It is to be noted that the action of the compound of the present invention on the NFκB activity or the SV40 promoter activity was shown as IC50 values (the concentration of a test compound needed for 50% inhibition of the induction of the luciferase expression).

[4] = system: SV40 promoter; assay: SV40 promoter luciferase reporter assay in SW480/SV40-Luc cells; format: cell-based, human; conditions: for IC50: Homo sapiens
Text: as §2

[5] = system: mice; assay: Animal toxicity test in mice transplanted with Meth A cells; format: in vivo, mouse; conditions: intravenous on days 1, 5, 9, observed for three weeks
Method: Also, the toxicity of known phenanthroindolizidine alkaloid compounds in mice, namely (12aS,13S)-6,7-dimethoxy-9,10,11,12,12a,13-hexahydro-9a-aza-cyclopenta[b]triphenylene-3,13-diol (known compound 1; refer to WO01/023384) and (12aS,13S)-3,6,7-trimethoxy-9,10,11,12,12a,13-hexahydro-9a-aza-cyclopenta[b]triphenylene-13-ol (known compound 2; refer to Planta Med., 2002, 68: 186-188), was simultaneously studied. To a control group, a physiological saline solution as a solvent, was administered.

[6] = system: human colon cancer SW480 cells; assay: Inhibitory action on the proliferation of SW480 cells; format: cell-based; conditions: 48 hours culture, TetraColor ONE; for IC50: Homo sapiens, SW480
Method: as §1

[7] = SW480, read-out: NFκB inhibitory activity IC50
[8] = SW480, read-out: SV40 promoter inhibitory activity IC50
[9] = SW480/NRE-Luc cells, 50 ng/mL TNFα, luciferase expression
[10] = SW480/SV40-Luc cells, luciferase expression

Row | Compound | IC50 [1] [µg/mL] | IC50 [2] [µg/mL] | IC50 [3, 7] [µg/mL] | IC50 [4, 8] [µg/mL] | IC50 [6] [µg/mL] | A549 proliferation inhibitory action IC50 [1] [µg/mL] | HT-29 proliferation inhibitory action IC50 [2] [µg/mL] | NFκB inhibitory activity IC50 [3, 9] [µg/mL] | SV40 promoter inhibitory activity IC50 [4, 10] [µg/mL] | SW480 proliferation inhibitory action IC50 [6] [µg/mL] | other results
1 | COc1cc2c3c(c4ccc(O)cc4c2c(OC)c1OC)[C@H](O)[C@@H]1CCCN1C3.Cl [Compound 1, (12aS,13S)-5,6,7-trimethoxy-9,10,11,12,12a,13-hexahydro-9a-aza-cyclopenta[b]triphenylene-3,13-diol hydrochloride] | 0.56 | 0.637 | 0.668 | > 10 | 1.97 |  |  |  |  |  | Mortality rate ([5]; total dose 25 mg/kg): 0/5; Mortality rate ([5]; total dose 50 mg/kg): 0/5
2 | COc1cc2c3c(c4ccc(O)cc4c2c(OC)c1OC)[C@@H](O)[C@H]1CCCN1C3.Cl [Compound 2, (12aR,13R)-5,6,7-trimethoxy-9,10,11,12,12a,13-hexahydro-9a-aza-cyclopenta[b]triphenylene-3,13-diol hydrochloride] | 0.0025 | 0.0047 | 0.001 | > 1 | 0.0036 |  |  |  |  |  | 
3 | Cl.Oc1ccc2c3c(c4ccccc4c2c1)CN1CCC[C@H]1[C@H]3O [Compound 3, (12aS,13S)-9,10,11,12,12a,13-hexahydro-9a-aza-cyclopenta[b]triphenylene-3,13-diol hydrochloride] | 0.107 | 0.14 | 0.173 | > 10 | 0.405 |  |  |  |  |  | Mortality rate ([5]; total dose 25 mg/kg): 0/5; Mortality rate ([5]; total dose 50 mg/kg): 0/5
4 | Cl.Oc1ccc2c3c(c4ccc(F)cc4c2c1)CN1CCC[C@H]1[C@H]3O [Compound 4, (12aS,13S)-6-fluoro-9,10,11,12,12a,13-hexahydro-9a-aza-cyclopenta[b]triphenylene-3,13-diol hydrochloride] | 0.152 | 0.218 | 0.286 | > 10 | 0.503 |  |  |  |  |  | 
5 | COc1cc2c3c(c4ccc(O)cc4c2cc1OC)[C@H](OC(C)=O)[C@@H]1CCCN1C3.Cl [Compound 5, acetic acid(12aS,13S)-3-hydroxy-6,7-dimethoxy-9,10,11,12,12a,13-hexahydro-9a-aza-cyclopenta[b]triphenylene-13-yl ester hydrochloride] |  |  |  |  |  | 0.0005 | 0.0023 | 0.027 | >0.1 | 0.005 | Mortality rate ([5]; total dose 25 mg/kg): 0/5; Mortality rate ([5]; total dose 50 mg/kg): 0/5
6 | COc1cc2c3c(c4ccc(O)cc4c2cc1OC)C(N)[C@@H]1CCCN1C3.Cl (stereo partly drawn) [Compound 7, (S)-13-amino-6,7-dimethoxy-9,10,11,12,12a,13-hexahydro-9a-aza-cyclopenta[b]triphenylene-3-ol hydrochloride] | 0.265 | 0.243 | 0.468 | > 10 | 2.34 |  |  |  |  |  | 
7 | CCOc1cc2c3c(c4ccc(O)cc4c2cc1OCC)C[C@@H]1CCCN1C3.Cl [Compound 14, (S)-6,7-diethoxy-9,10,11,12,12a,13-hexahydro-9a-aza-cyclopenta[b]triphenylene-3-ol hydrochloride] | 0.0021 | 0.0121 | 0.0047 | > 1 | 0.0154 |  |  |  |  |  | 
8 | COc1cc2c3c(c4ccc(O)c(Cl)c4c2cc1OC)C[C@@H]1CCCN1C3.CS(=O)(=O)O [Compound 22, (S)-4-chloro-6,7-dimethoxy-9,10,11,12,12a,13-hexahydro-9a-aza-cyclopenta[b]triphenylene-3-ol methanesulfonate] |  |  |  |  |  | 0.00071 | 0.0041 | 0.00041 | >0.1 | 0.0006 | 
9 | COc1cc2c3c(c4cc(C)c(O)c(C)c4c2cc1OC)C[C@@H]1CCCN1C3.CS(=O)(=O)O [Compound 26, (S)-6,7-dimethoxy-2,4-dimethyl-9,10,11,12,12a,13-hexahydro-9a-aza-cyclopenta[b]triphenylene-3-ol methanesulfonate] |  |  |  |  |  | 0.1002 | 0.05 | 0.0597 | >10 | 0.0321 | 
10 | COc1ccc2c3c(c4cc(OC)c(OC)cc4c2c1)CN1CCC[C@H]1[C@H]3O [Known Compound 2, (12aS,13S)-3,6,7-trimethoxy-9,10,11,12,12a,13-hexahydro-9a-aza-cyclopenta[b]triphenylene-13-ol, reference compound] |  |  |  |  |  |  |  |  |  |  | Mortality rate ([5]; total dose 25 mg/kg, 25 mg/kg): 2/5; Mortality rate ([5]; total dose 25 mg/kg, listed as known compound 2, 25 mg/kg): some of the mice also died; Mortality rate ([5]; total dose 50 mg/kg, 50 mg/kg): 5/5; Mortality rate ([5]; total dose 50 mg/kg, listed as known compound 2, 50 mg/kg): all the mice died
11 | COc1cc2c3c(c4ccc(O)cc4c2cc1OC)[C@H](O)[C@@H]1CCCN1C3 [Known compound 1, (12aS,13S)-6,7-dimethoxy-9,10,11,12,12a,13-hexahydro-9a-aza-cyclopenta[b]triphenylene-3,13-diol, reference compound] |  |  |  |  |  |  |  |  |  |  | Mortality rate ([5]; total dose 25 mg/kg): 0/5; Mortality rate ([5]; total dose 50 mg/kg, 50 mg/kg): 5/5; Mortality rate ([5]; total dose 50 mg/kg, listed as known compound 1, 50 mg/kg): all the mice died
12 | S=C(S)N1CCCC1 [PDTC, pyrrolidine dithiocarbamate, reference compound] |  |  |  |  |  |  |  |  |  |  | IC50 ([3]; SW480/NRE-Luc cells, 50 ng/mL TNFα, luciferase expression, read-out: NFκB inhibitory activity IC50): 2.4 µg/mL (≈ 16.3 µM); IC50 ([4]; SW480/SV40-Luc cells, luciferase expression, read-out: SV40 promoter inhibitory activity IC50): > 10 µg/mL
13 | (S)-2-chloro-6,7-dimethoxy-9,10,11,12,12a,13-hexahydro-9a-aza-cyclopenta[b]triphenylene-3-ol methanesulfonate [Compound 21] |  |  |  |  |  | 0.008 | 0.0068 | 0.0054 | >1 | 0.0067 | 
14 | (S)-2-fluoro-6,7-dimethoxy-9,10,11,12,12a,13-hexahydro-9a-aza-cyclopenta[b]triphenylene-3-ol methanesulfonate [Compound 25] |  |  |  |  |  | 0.0026 | 0.007 | 0.0016 | >1 | 0.0031 | 
